In patent US20240398737A1, “FUNCTIONALIZED LONG-CHAIN HYDROCARBON MONO- AND DI-CARBOXYLIC ACIDS AND DERIVATIVES THEREOF, AND THEIR USE FOR THE PREVENTION OR TREATMENT OF DISEASE” (Espervita Therapeutics, Inc., priority 2021, published 2024):
Blank lines part the entries; values can stand above or below the compound they belong to.

Assays:
[1] = system: human hematopoietic stem and progenitor cells; assay: Megakaryopoiesis and platelet production in cultured human hematopoietic stem and progenitor cells; type: cell-based; settings: added day 0, 8 days culture, I-32 and I-1 30 μM, ABT-737 6 μmol
Method: Materials and Methods. Hematopoietic stem and progenitor cells, identified as viable CD45+ CD34+ cells, were isolated from peripheral blood of healthy donors by a method known in the art (see Ivetic N, Nazi I, Karim N et al. Producing megakaryocytes from a human peripheral blood source. Transfusion 2016; 56:1066-74). These isolated cells were then analyzed for purity before being expanded for four days using a commercial supplement to increase their cell population. After expansion, the cells were analyzed for purity, washed, and stimulated with a saturating concentration of thrombopoietin (20 ng/mL) and stem cell factor (50 ng/mL) to begin megakaryopoiesis. Compound I-32 and Compound I-1 were added at this timepoint at a concentration of 30 μM. The cells were then cultured for 8 days to develop into megakaryocytes and analyzed via flow cytometry to assess their number, maturity, and platelet count as defined by CD41a, CD42b and Calcein-AM expression. In addition, Compound I-32 and Compound I-1 were added to cells during the later stages of development (day 6) to assess their impact on maturation. ABT-737 (6 μmol) was used as a positive control and a DMSO vehicle control (<0.15% v/v) was the negative control. All counts are normalized to a media control (PBS) as a reference for basic cell growth.
Statistical analysis. Statistical analyses were carried out by comparing effects on measured parameters in comparison to vehicle control. A value of […] (One-way ANOVA multiple comparisons) was considered as significant.
Two isolations were performed from two healthy donors (2 males) and used to assess the impacts of Compound I-32 and Compound I-1. For one of the isolations, enough expanded hematopoietic stem and progenitor cells (HSPC) (Experiment 1) were obtained so that the addition of the compounds on day 6 was also performed along with the initial experiment. For the other experiment (Experiment 2) only an 8-day incubation was performed.
All results were normalized to a reference media (PBS) and Compound I-32 and Compound I-1 were compared to a vehicle control. Reference compound ABT-737 is a known BCL-2 inhibitor and was used a positive control. Results in FIGS. 25A-25J are the summary of a single experiments conducted in triplicates. No statistical inhibition was detected for Compound I-32 or Compound I-1 (p>0.05 one-way ANOVA).

[2] = system: Mouse primary hepatocytes; assay: 14C-acetate incorporation into total lipids in mouse primary hepatocytes; type: cell-based; settings: incorporation of 14C-acetate in primary mouse hepatocyte total lipids, 4 hours; for inhibition at 100 µM: read-out: % change from control at 100 μM ± SEM(n)
Method: After perfusion, collagen digested liver cells were re-suspended in William's E media (11 mM glucose) (Gibco) supplemented with 10% fetal bovine serum (FBS) (Gibco), 2 mM L-glutamine (Gibco) and 1% Antibiotic-Antimycotic (Gibco) mixture and seeded in white opaque 96-well plates. On the following day, the cells were serum-starved for 2 hours, then treated with 0 μM, 0.1 μM, 0.3 μM, 0.5 μM, 1 μM, 3 μM, 10 μM, and 100 μM of Compound I-32, Compound I-1, Compound III-1 or Reference Compound (e.g., any of Compounds A-E or bempedoic acid) in the presence of ^14C-Acetate (1 μCi/ml, PerkinElmer). Each of Compound I-32, Compound I-1, Compound III-1, and Reference Compound was solubilized in 100% DMSO to a final concentration of 100 mM stock solution. In the experimental condition, the stock solution was diluted in serum free media (William's E media (11 mM glucose) (Gibco), 2 mM L-glutamine (Gibco) and 1% Antibiotic-Antimycotic) to yield the desired concentration of each compound. […] After 4 hours of treatment, the plates were washed two times with PBS (×1) and 100 μL microscint fluid (Microscint 0, part #601361) was added in each well. Plates were wrapped with aluminum foil and were shaken at 250 rpm for 2 h. After 2 h of shaking, ^14C incorporation into lipid was determined by liquid scintillation counting using a TopCount NXT Microplate Scintillation and Luminescence Counter (Perkin Elmer).
The effects of Compound I-32, Compound I-1, and Compound III-1 on mouse primary hepatocyte lipogenesis are represented in Table 13. Each Compound was assayed at a concentration of 0 μM (vehicle control), 0.1 μM, 0.3 μM, 0.5 μM, 1 μM, 3 μM, 10 μM, and 100 μM, unless otherwise noted. Statistically significant inhibition was determined by one-way ANOVA and Dennett's post hoc test where appropriate. […] IC50 values were determined by nonlinear regression. All statistical analyses were carried out using GraphPad Prism 8 software. A p-value of less than or equal 0.05 was considered significant.

human ACLY = human ACLY (Homo sapiens (Human), UniProt P53396); assay: ATP-citrate lyase (ACLY) enzymatic assay (ADP-Glo); type: biochemical; settings: recombinant human ACLY; 10 concentrations from 300 μM; Runs 1-3; read-out: Compound IC50 (M) ACLY
Method: ATP citrate lyase was obtained from Sino Biological Inc. Cat #11769-H07B, Lot #LC08DE1701. It was prepared from a DNA sequence encoding the human ACLY (P53396) (Met 1-Met 1101) expressed in Baculovirus-Insect Cells, with a polyhistidine tag at the N-terminus. The recombinant human ACLY consists of 1120 amino acids and has a calculated molecular mass of 123 kDa. It migrates as an approximately 110 kDa band in SDS-PAGE under reducing conditions. The enzyme came as a lyophilized powder in sterile 20 mM Tris, 500 mM NaCl, pH 8.0, 10% glycine. Normally 5%-8% trehalose and mannitol are added as protectants before lyophilization. The recombinant human ACLY from Sino Biological was formulated in 45 mM Tris-HCl, pH 8.0, 124 mM NaCl, 2.4 mM KCl, 18 mM glutathione, 10% glycerol, and 3 mM DTT.
To detect ADP produced from ACL assay, the ADP-Glo™ assay format from Promega, Madison, WI, was used, to detect the conversion of ATP to ADP. […] This assay is performed in two steps: i) after the ACL-mediated enzymatic reaction that utilizes ATP and produces ADP, ADP-Glo™ Reagent is added to terminate the kinase reaction and deplete the remaining ATP, and ii) the Kinase Detection Reagent is added to convert ADP to ATP and allow the newly synthesized ATP to be measured using a luciferase/luciferin reaction. The light generated, measured in a luminometer, correlates to the amount of ADP generated in the ACL assay, which is indicative of ACL activity.
Data represent nM or μM ADP produced, % Activity (relative to no inhibitor controls), and curve fits were performed by GraphPad Prism software. The IC50 concentration-response curves were generated for ADPGlo™ using recombinant human ACL from Sino Biologicals Inc.

[3] = Synthesis of CoA derivatives in rat liver microsomes (LCMS detection); type: in vitro ADME; settings: 1 mM substrate, 30 min sample
Method: Reaction products were eluted using the gradient shown below: […]
Formation and detection of the Co-A derivatives of Compounds 1-32, 1-61, I-1 or III-1 in rat liver microsomes: 1 mM of each compound (Compounds I-32, I-61, I-1 or III-1) or palmitic acid (control) were used as substrate in the rat microsomal preparation for 0 and 30 min and extracted as described above. […] Further confirmation was obtained by exposing the compound to a collision energy causing the characteristic neutral loss of 3′-phosphonucleoside diphosphate (507 Da) producing the fragment ion 499.3 m/z. There was no evidence of the CoA derivative in the time 0 min sample.

Sequence of human ACLY (P53396 whole entry): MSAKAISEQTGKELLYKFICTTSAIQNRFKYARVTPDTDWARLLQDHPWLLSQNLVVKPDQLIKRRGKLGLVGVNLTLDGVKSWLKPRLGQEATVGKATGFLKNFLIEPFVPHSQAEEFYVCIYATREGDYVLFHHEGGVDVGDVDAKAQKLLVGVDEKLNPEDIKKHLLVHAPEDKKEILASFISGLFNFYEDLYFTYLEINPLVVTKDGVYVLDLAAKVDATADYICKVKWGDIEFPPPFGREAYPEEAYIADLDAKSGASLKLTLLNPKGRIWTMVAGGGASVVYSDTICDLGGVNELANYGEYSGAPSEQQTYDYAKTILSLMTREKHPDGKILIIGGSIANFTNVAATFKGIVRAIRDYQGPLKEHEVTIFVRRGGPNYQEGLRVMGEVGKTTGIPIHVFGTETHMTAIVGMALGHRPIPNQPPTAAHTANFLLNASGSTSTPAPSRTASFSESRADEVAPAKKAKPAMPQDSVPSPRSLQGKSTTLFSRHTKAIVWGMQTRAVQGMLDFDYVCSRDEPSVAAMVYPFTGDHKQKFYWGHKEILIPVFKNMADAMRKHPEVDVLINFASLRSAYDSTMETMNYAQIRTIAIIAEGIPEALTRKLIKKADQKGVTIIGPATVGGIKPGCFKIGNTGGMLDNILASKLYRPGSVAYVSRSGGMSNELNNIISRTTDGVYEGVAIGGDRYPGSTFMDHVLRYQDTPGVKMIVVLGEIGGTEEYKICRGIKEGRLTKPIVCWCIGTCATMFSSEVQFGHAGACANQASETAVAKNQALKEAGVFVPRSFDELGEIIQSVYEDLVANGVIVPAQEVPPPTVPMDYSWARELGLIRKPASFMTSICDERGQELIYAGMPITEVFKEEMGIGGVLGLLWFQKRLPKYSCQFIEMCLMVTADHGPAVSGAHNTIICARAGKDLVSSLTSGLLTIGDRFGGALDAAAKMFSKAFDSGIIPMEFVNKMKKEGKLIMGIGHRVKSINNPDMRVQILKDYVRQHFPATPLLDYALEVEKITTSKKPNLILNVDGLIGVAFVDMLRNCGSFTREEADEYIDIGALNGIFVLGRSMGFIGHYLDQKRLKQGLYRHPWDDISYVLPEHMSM

Compound: CN(C)CC[C@H](CSc1ccccc1)Nc1ccc(S(=O)(=O)NC(=O)c2ccc(N3CCN(Cc4ccccc4-c4ccc(Cl)cc4)CC3)cc2)cc1[N+](=O)[O-] [ABT-737, reference compound]
- CD41a+ mean fluorescence intensity (MFI), normalized [1]: 46±34%
- Normalized cell size (CD41a+) [1]: 81±6%
- CD41a CD42b+ counts (mature megakaryocytes), normalized to reference media control ([1]; average±SD): 2±1%
- CD41a+ cells (megakaryocytes), normalized to reference media control ([1]; average±SD): 9±5%
- Platelet counts, normalized to reference media control ([1]; average±SD): 3±3%

Compound: CC(C)(CO)CCCCC(=O)CCCCC(C)(C)CO [A]
- % change from control at 100 μM ± SEM(n) [2]: −41 ± 4.8 (n = 2) %

Compound: CC(C)(CCCCCC(O)CCCCCC(C)(C)C(=O)O)C(=O)O [BA, Bempedoic acid]
- % change from control at 100 μM ± SEM(n) [2]: −79 ± 1.5 (n = 4) %

Compound: COc1ccc(-c2ccccc2)cc1NS(=O)(=O)c1cc(Cl)cc(Cl)c1O [BMS-303141, reference compound]
- IC50 (human ACLY): 4.45e-07 M

Compound: CC(C)(CO)CCCCC(=O)CCCCC(C)(C)C(=O)O [B]
- IC50 [2]: 25.6 µM
- inhibition at 100 µM [2]: 69 ± 2.3%

Compound: CC(C)(CCCCCC(=O)CCCCCC(C)(C)C(=O)O)C(=O)O [C]
- inhibition at 100 µM [2]: 76 ± 41%

Compound: CC(C)(CO)CCCCCC(=O)CCCCCC(C)(C)CO [D]
- % change from control at 100 μM ± SEM(n) [2]: −90 ± 1.5 (n = 4) %

Compound: CC(C)(CCCCCCC(=O)CCCCCCC(C)(C)C(=O)O)C(=O)O [E]
- % change from control at 100 μM ± SEM(n) [2]: −62 ± 4.5 (n = 4) %

Compound: CC(C)(CCCCCCCCCCCC(C)(C)C(=O)O)C(=O)O [F]
- % change from control at 100 μM ± SEM(n) [2]: −91 ± 3.6 (n = 4) %

- Formation of the CoA derivative (LCMS detection, fragmentation confirmation) [3]: could not be confirmed
Compound: CC(C)(CCCc1ccccc1CCCC(C)(C)C(=O)SCCNC(=O)CCNC(=O)[C@H](O)C(C)(C)COP(=O)(O)OP(=O)(O)OC[C@H]1O[C@@H](n2cnc3c(N)ncnc32)[C@H](O)[C@@H]1OP(=O)(O)O)C(=O)O [I-61—CoA]

Compound: CC(C)(CCCc1ccc(CCCC(C)(C)C(=O)O)cc1)C(=O)O [III-1]
- % change from control at 100 μM ± SEM(n) [2]: −70 ± 2.2 (n = 4) %
